Assay results as given in patent publication US20250230193A1, “CYCLIC COMPOUND HAVING SELECTIVE KRAS INHIBITORY EFFECT ON HRAS AND NRAS” (CHUGAI SEIYAKU KABUSHIKI KAISHA, priority 2022, published 2025).

How the values were obtained:
[1] = molecular target: GDP-bound NRAS wild-type protein (Homo sapiens, UniProt P01111); experiment: Binding to NRAS by surface plasmon resonance (SPR), Single Cycle Kinetics; conditions: SPR, GDP-bound NRAS wild-type vs GDP-bound KRAS wild-type
[2] = molecular target: GDP-bound HRAS wild-type protein (Homo sapiens, UniProt P01112); experiment: Binding to HRAS by surface plasmon resonance (SPR), Single Cycle Kinetics; conditions: SPR, GDP-bound HRAS wild-type vs GDP-bound KRAS wild-type
Sequence of GDP-bound HRAS wild-type protein (P01112 whole entry): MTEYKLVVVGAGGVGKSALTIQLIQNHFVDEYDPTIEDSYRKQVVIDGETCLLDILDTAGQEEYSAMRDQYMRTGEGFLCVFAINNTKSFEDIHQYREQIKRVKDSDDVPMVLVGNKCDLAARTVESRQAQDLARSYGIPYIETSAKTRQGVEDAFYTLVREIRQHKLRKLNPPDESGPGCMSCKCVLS

Sequence of GDP-bound NRAS wild-type protein (P01111 whole entry): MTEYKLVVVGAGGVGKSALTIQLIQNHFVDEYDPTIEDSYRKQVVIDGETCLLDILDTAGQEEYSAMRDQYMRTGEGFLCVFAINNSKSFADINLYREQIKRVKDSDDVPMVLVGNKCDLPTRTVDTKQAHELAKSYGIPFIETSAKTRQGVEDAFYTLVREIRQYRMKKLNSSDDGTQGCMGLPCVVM

SMILES | NRAS/KRAS (ratio of KD value with respect to NRAS to KD value with respect to KRAS) [1] | HRAS/KRAS (ratio of KD value with respect to HRAS to KD value with respect to KRAS) [2]
CCO[C@@H]1C[C@H]2C(=O)NC3(CC(C)(C)C3)C(=O)N(C)[C@@H](C(CC)CC)C(=O)N(C)[C@H](C(=O)N(C)C)CC(=O)N(C)[C@@H](CC3CCC3)C(=O)N[C@@H]([C@@H](C)CC)C(=O)N(C)CC(=O)N(C)[C@H]3C/C=C\CCN(C3=O)[C@@H](Cc3ccc(C(F)(F)F)cc3)C(=O)N(C)CC(=O)N[C@@H](CCc3ccc(Cl)c(Cl)c3)C(=O)N2C1 [PP2180] | AA (a compound having 20 or more is denoted as AA) | A (a compound having 10 or more and less than 20 is denoted as A)
CCO[C@@H]1C[C@H]2C(=O)NC3(CC(C)(C)C3)C(=O)N(C)[C@@H](C(CC)CC)C(=O)N(C)[C@H](C(=O)N(C)C)CC(=O)N(C)[C@@H](C(C)C)C(=O)N[C@@H]([C@@H](C)CC)C(=O)N(C)CC(=O)N(C)[C@H]3C/C=C\CCN(C3=O)[C@@H](Cc3ccc(C(F)(F)F)cc3)C(=O)N(C)CC(=O)N[C@@H](CCc3ccc(Cl)c(Cl)c3)C(=O)N2C1 [PP2181] | AA (a compound having 20 or more is denoted as AA) | A (a compound having 10 or more and less than 20 is denoted as A)
CCO[C@@H]1C[C@H]2C(=O)NC3(CC(C)(C)C3)C(=O)N(C)[C@@H](C(CC)CC)C(=O)N(C)[C@H](C(=O)N(C)C)CC(=O)N(C)[C@@H](CC3CC3)C(=O)N[C@@H]([C@@H](C)CC)C(=O)N(C)CC(=O)N(C)[C@H]3C/C=C\CCN(C3=O)[C@@H](Cc3ccc(C)cc3)C(=O)N(C)CC(=O)N[C@@H](CCc3ccc(Cl)c(Cl)c3)C(=O)N2C1 [PP2182] | AA (a compound having 20 or more is denoted as AA) | A (a compound having 10 or more and less than 20 is denoted as A)
CCC[C@H]1C(=O)N[C@@H]([C@@H](C)CC)C(=O)N(C)CC(=O)N(C)[C@H]2C/C=C\CCN(C2=O)[C@@H](Cc2ccc(C)cc2)C(=O)N(C)CC(=O)N[C@@H](CCc2ccc(Cl)c(Cl)c2)C(=O)N2C[C@H](OCC)C[C@H]2C(=O)NC2(CC(C)(C)C2)C(=O)N(C)[C@@H](C(CC)CC)C(=O)N(C)[C@H](C(=O)N(C)C)CC(=O)N1C [PP2184] | AA (a compound having 20 or more is denoted as AA) | A (a compound having 10 or more and less than 20 is denoted as A)
CCO[C@@H]1C[C@H]2C(=O)NC3(CC(C)(C)C3)C(=O)N(C)[C@@H](C(CC)CC)C(=O)N(C)[C@H](C(=O)N(C)C)CC(=O)N(C)[C@@H](CC(C)C)C(=O)N[C@@H]([C@@H](C)CC)C(=O)N(C)CC(=O)N(C)[C@H]3C/C=C\CCN(C3=O)[C@@H](Cc3ccc(C)cc3)C(=O)N(C)CC(=O)N[C@@H](CCc3ccc(Cl)c(Cl)c3)C(=O)N2C1 [PP2185] | AA (a compound having 20 or more is denoted as AA) | A (a compound having 10 or more and less than 20 is denoted as A)
CCO[C@@H]1C[C@H]2C(=O)NC3(CC(C)(C)C3)C(=O)N(C)[C@@H](C(CC)CC)C(=O)N(C)[C@H](C(=O)N(C)C)CC(=O)N(C)[C@@H](C)C(=O)N[C@@H]([C@@H](C)CC)C(=O)N(C)CC(=O)N(C)[C@H]3C/C=C\CCN(C3=O)[C@@H](Cc3ccc(C)cc3)C(=O)N(C)CC(=O)N[C@@H](CCc3ccc(Cl)c(Cl)c3)C(=O)N2C1 [PP2186] | AA (a compound having 20 or more is denoted as AA) | A (a compound having 10 or more and less than 20 is denoted as A)
CCO[C@@H]1C[C@H]2C(=O)NC3(CC(C)(C)C3)C(=O)N(C)[C@@H](C(CC)CC)C(=O)N(C)[C@H](C(=O)N3CCCC3)CC(=O)N(C)[C@@H](C)C(=O)N[C@@H]([C@@H](C)CC)C(=O)N(C)CC(=O)N(C)[C@H]3C/C=C\CCN(C3=O)[C@@H](Cc3ccc(C)cc3)C(=O)N(C)CC(=O)N[C@@H](CCc3ccc(Cl)c(Cl)c3)C(=O)N2C1 [PP2187] | AA (a compound having 20 or more is denoted as AA) | A (a compound having 10 or more and less than 20 is denoted as A)
CCO[C@@H]1C[C@H]2C(=O)NC3(CC(C)(C)C3)C(=O)N(C)[C@@H](C(CC)CC)C(=O)N(C)[C@H](C(=O)N(C)C)CC(=O)N(C)[C@@H](CC)C(=O)N[C@@H]([C@@H](C)CC)C(=O)N(C)CC(=O)N(C)[C@H]3C/C=C\CCN(C3=O)[C@@H](Cc3ccc(C)cc3)C(=O)N(C)CC(=O)N[C@@H](CCc3ccc(Cl)c(Cl)c3)C(=O)N2C1 [PP2188] | AA (a compound having 20 or more is denoted as AA) | A (a compound having 10 or more and less than 20 is denoted as A)
CC[C@H](C)[C@@H]1NC(=O)[C@H](CC(C)C)N(C)C(=O)C[C@@H](C(=O)N(C)C)N(C)C(=O)[C@H](C2CCCC2)N(C)C(=O)C2(CCCC2)NC(=O)[C@@H]2C[C@@H](C)CN2C(=O)[C@H](CCc2cc(F)c(C(F)(F)F)c(F)c2)NC(=O)CN(C)C(=O)[C@H](Cc2ccc(C)cc2)N2CC/C=C\C[C@@H](C2=O)N(C)C(=O)CN(C)C1=O [PP2189] | A (a compound having 10 or more and less than 20 is denoted as A) | A (a compound having 10 or more and less than 20 is denoted as A)
CCC[C@H]1C(=O)N[C@@H](C2CCCC2)C(=O)N(C)CC(=O)N(C)[C@H]2C/C=C\CCN(C2=O)[C@@H](Cc2ccc(C)cc2)C(=O)N(C)CC(=O)N[C@@H](CCc2ccc(C(F)(F)F)c(Cl)c2)C(=O)N2C[C@H](OCC)C[C@H]2C(=O)NC2(CC(C)(C)C2)C(=O)N(C)[C@@H](CC(C)C)C(=O)N(C)[C@H](C(=O)N(C)C)CC(=O)N1C [PP2190] | A (a compound having 10 or more and less than 20 is denoted as A) | A (a compound having 10 or more and less than 20 is denoted as A)
CC[C@@H]1C[C@H]2C(=O)NC3(CCCC3)C(=O)N(C)[C@@H](C3CCCC3)C(=O)N(C)[C@H](C(=O)N(C)C)CC(=O)N(C)[C@@H](CC(C)C)C(=O)N[C@@H]([C@@H](C)CC)C(=O)N(C)CC(=O)N(C)[C@H]3C/C=C\CCN(C3=O)[C@@H](Cc3ccc(C)cc3)C(=O)N(C)CC(=O)N[C@@H](CCc3cc(F)c(C(F)(F)F)c(F)c3)C(=O)N2C1 [PP2191] | A (a compound having 10 or more and less than 20 is denoted as A) | B (a compound having 3 or more and less than 10 is denoted as B)
CCC[C@H]1C(=O)N[C@@H](C2CCCC2)C(=O)N(C)CC(=O)N(C)[C@H]2C/C=C\CCN(C2=O)[C@@H](Cc2ccc(C)cc2)C(=O)N(C)CC(=O)N[C@@H](CCc2ccc(C(F)(F)F)c(Cl)c2)C(=O)N2C[C@H](OCC)C[C@H]2C(=O)NC2(CC(C)(C)C2)C(=O)N(C)[C@@H](CC(F)(F)F)C(=O)N(C)[C@H](C(=O)N(C)C)CC(=O)N1C [PP2192] | A (a compound having 10 or more and less than 20 is denoted as A) | A (a compound having 10 or more and less than 20 is denoted as A)
CCC[C@@H]1C[C@H]2C(=O)NC3(CCCC3)C(=O)N(C)[C@@H](C3CCCC3)C(=O)N(C)[C@H](C(=O)N(C)C)CC(=O)N(C)[C@@H](CC(C)C)C(=O)N[C@@H]([C@@H](C)CC)C(=O)N(C)CC(=O)N(C)[C@H]3C/C=C\CCN(C3=O)[C@@H](Cc3ccc(C)cc3)C(=O)N(C)CC(=O)N[C@@H](CCc3cc(F)c(C(F)(F)F)c(F)c3)C(=O)N2C1 [PP2193] | A (a compound having 10 or more and less than 20 is denoted as A) | A (a compound having 10 or more and less than 20 is denoted as A)
CCO[C@@H]1C[C@H]2C(=O)NC3(CCCC3)C(=O)N(C)[C@@H](C3CCCC3)C(=O)N(C)[C@H](C(=O)N(C)C)CC(=O)N(C)[C@@H](CC(C)C)C(=O)N[C@@H]([C@@H](C)CC)C(=O)N(C)CC(=O)N(C)[C@H]3C/C=C\CCN(C3=O)[C@@H](Cc3ccc(C)cc3)C(=O)N(C)CC(=O)N[C@@H](CCc3ccc(C(F)(F)F)c(Cl)c3)C(=O)N2C1 [PP2195] | A (a compound having 10 or more and less than 20 is denoted as A) | A (a compound having 10 or more and less than 20 is denoted as A)
CCC[C@H]1C(=O)N[C@@H](C2CCCC2)C(=O)N(C)CC(=O)N(C)[C@H]2C/C=C\CCN(C2=O)[C@@H](Cc2ccc(C)cc2)C(=O)N(C)CC(=O)N[C@@H](CCc2ccc(C(F)(F)F)c(Cl)c2)C(=O)N2C[C@H](OCC)C[C@H]2C(=O)NC2(CC(C)(C)C2)C(=O)N(C)[C@@H](CC(C)(C)C)C(=O)N(C)[C@H](C(=O)N(C)C)CC(=O)N1C [PP2196] | A (a compound having 10 or more and less than 20 is denoted as A) | B (a compound having 3 or more and less than 10 is denoted as B)
CCO[C@@H]1C[C@H]2C(=O)NC3(CCCC3)C(=O)N(C)[C@@H](C3CCCC3)C(=O)N(C)[C@H](C(=O)N(C)C)CC(=O)N(C)[C@@H](CC(C)C)C(=O)N[C@@H]([C@@H](C)CC)C(=O)N(C)CC(=O)N(C)[C@H]3C/C=C\CCN(C3=O)[C@@H](Cc3ccc(C)cc3)C(=O)N(C)CC(=O)N[C@@H](CCc3ccc(C(F)(F)F)c(OC)c3)C(=O)N2C1 [PP2197] | A (a compound having 10 or more and less than 20 is denoted as A) | B (a compound having 3 or more and less than 10 is denoted as B)
